Test system: primary normal human dermal fibroblasts (NHDF)
Assay: Energy production (metabolic activity) by alamarBlue REDOX indicator fluorescence
Type: cell-based
Conditions: NHDF in DMEM prepared with Evian mineral water; 10 mM of each agent; 3-hour incubation, then alamarBlue 1 hour; fluorescence ex 530 nm/em 590 nm; n=8
Method: The effects of L-carnitine and sodium pyruvate, in mineral water, on energy production were evaluated in primary normal human dermal fibroblasts (adult). Energy production in the cell is assessed using the REDOX sensitive indicator alamarBlue™ (Alamar Biosciences, Sacramento, Calif.). The native, oxidized form of alamarBlue™ is taken up readily by cells and reduced intracellularly by the mitochondrial electron transport chain, resulting in a shift in its absorbance and fluorescence. Normal human dermal fibroblasts (NHDF), obtained from Clonetics (Biowhittaker Inc., Walkersville, Md.), were cultured in Clonetics FGM2 medium and grown to confluence in 96-well plates (Costar, Cambridge, Mass.). Culture medium was then replaced with DMEM (Life Technologies, Rockville, Md.) prepared with Evian® mineral water. After 72 hours cells were treated with 10 mM L-carnitine (Biosint USA, Larchmont, N.Y.), 10 mM sodium pyruvate (American International Chemical Inc., Natick, Mass.) or 10 mM L-carnitine in combination with 10 mM sodium pyruvate. At the end of a 3-hour incubation period, alamarBlue™ was added to each well and the plates returned to the incubator. After 1 hour the fluorescence was measured using a CytoFluor® Fluorescence Plate Reader (PerSeptive Biosystems, Framingham, Mass.) set with the following filter-combination: excitation at 530 nm and emission at 590 nm.

| Structure (SMILES) | increase in metabolic activity [%] |
| --- | --- |
| C[N+](C)(C)C[C@H](O)CC(=O)[O-] [carntine, L-carnitine] | 6.05 |
| CC(=O)C(=O)[O-].[Na+] [sodium pyruvate] | 2.16 |
